Experimental data reported in the NIST ThermoML archive (doi:10.1016/j.jct.2004.09.014).

Test: xn = mol fraction of the nth substance listed
Conditions: 101.3 kPa, Liquid

COCCOCCO [2-(2-methoxyethoxy)ethanol] + CCOC(C)(C)C
mass density [kg/m3]
Conditions	293.15 K	298.15 K	303.15 K	308.15 K	313.15 K
x2 = 0	1020.8	1016.4	1011.83	1007.69	1003.22
x2 = 0.0501	1008.17	1003.25	998.3	993.76	988.94
x2 = 0.1	995.15	990.04	984.9	980.19	975.19
x2 = 0.1459	982.68	977.43	972.25	967.46	962.35
x2 = 0.1998	967.77	962.42	957.22	952.39	947.16
x2 = 0.2556	951.99	946.59	941.41	936.49	931.19
x2 = 0.3031	938.38	932.91	927.71	922.72	917.37
x2 = 0.3521	924.22	918.7	913.47	908.42	902.96
x2 = 0.4004	910.16	904.58	899.35	894.26	888.75
x2 = 0.4511	895.34	889.68	884.41	879.28	873.72
x2 = 0.4998	881.09	875.34	870.08	864.91	859.34
x2 = 0.5628	862.65	856.89	851.64	846.47	840.9
x2 = 0.5997	851.96	846.15	840.91	835.75	830.21
x2 = 0.6621	833.91	828.16	822.99	817.83	812.29
x2 = 0.6997	823.14	817.44	812.33	807.17	801.6
x2 = 0.7411	811.55	805.81	800.69	795.54	790.02
x2 = 0.7995	795.39	789.63	784.53	779.35	773.85
x2 = 0.8401	784.28	778.52	773.45	768.28	762.75
x2 = 0.8998	768.16	762.41	757.39	752.25	746.7
x2 = 0.9498	754.72	748.99	744.04	738.99	733.52

COCCOCCOCCO [2-[2-(2-methoxyethoxy)ethoxy]ethanol] + CCOC(C)(C)C
mass density [kg/m3]
Conditions	293.15 K	298.15 K	303.15 K	308.15 K	313.15 K
x2 = 0	1047.29	1042.97	1038.65	1034.33	1030.01
x2 = 0.0504	1037.46	1032.75	1028.05	1023.44	1018.75
x2 = 0.1	1026.36	1021.48	1016.59	1011.83	1006.97
x2 = 0.1509	1014.18	1009.14	1004.22	999.35	994.34
x2 = 0.2025	1000.97	995.85	990.92	985.93	980.82
x2 = 0.2489	988.73	983.55	978.6	973.56	968.35
x2 = 0.3007	974.54	969.31	964.34	959.27	953.99
x2 = 0.3511	960.3	954.96	949.94	944.86	939.57
x2 = 0.3999	946.13	940.72	935.65	930.52	925.15
x2 = 0.4508	930.95	925.44	920.33	915.15	909.71
x2 = 0.5001	915.87	910.23	905.09	899.84	894.39
x2 = 0.5493	900.4	894.71	889.55	884.29	878.77
x2 = 0.6	884.14	878.36	873.18	867.9	862.36
x2 = 0.6503	867.65	861.88	856.69	851.4	845.82
x2 = 0.6998	851.17	845.39	840.21	834.91	829.29
x2 = 0.7491	834.48	828.67	823.52	818.24	812.58
x2 = 0.7999	816.94	811.16	806.01	800.74	795.06
x2 = 0.8509	798.94	793.17	788.08	782.84	777.19
x2 = 0.9001	780.97	775.22	770.16	764.98	759.37
x2 = 0.9498	761.89	756.2	751.24	746.17	740.68

CCOC(C)(C)C [2-ethoxy-2-methylpropane] + COCCO
mass density [kg/m3]
Conditions	293.15 K	298.15 K	303.15 K	308.15 K	313.15 K
x1 = 0.0501	950.05	944.7	939.45	934.22	928.99
x1 = 0.1	936.06	930.57	925.31	919.94	914.61
x1 = 0.1508	921.99	916.4	911.08	905.73	900.29
x1 = 0.2	908.51	902.92	897.66	892.25	886.78
x1 = 0.2512	894.84	889.15	883.86	878.57	873.09
x1 = 0.299	882.19	876.57	871.27	865.98	860.41
x1 = 0.3489	869.14	863.45	858.24	852.9	847.36
x1 = 0.4	856.06	850.34	845.06	839.8	834.21
x1 = 0.4503	843.79	837.98	832.77	827.45	821.87
x1 = 0.499	832.46	826.63	821.36	816.1	810.51
x1 = 0.55	821.14	815.31	810.08	804.81	799.19
x1 = 0.61	808.56	802.72	797.49	792.22	786.6
x1 = 0.6599	798.66	792.76	787.53	782.25	776.65
x1 = 0.7	790.96	785.07	779.87	774.61	769.03
x1 = 0.7511	781.59	775.75	770.56	765.33	759.73
x1 = 0.8	773.01	767.18	762.01	756.8	751.25
x1 = 0.8489	764.84	759.04	753.94	748.76	743.21
x1 = 0.9	756.5	750.81	745.76	740.66	735.16
x1 = 0.949	748.89	743.23	738.32	733.24	727.78
x1 = 1	741.11	735.59	730.85	725.98	720.69
